Measurements from US20230146455A1, “TREATMENT OF INFLAMMATORY DISEASES WITH PEPTIDES AND PHARMACEUTICAL COMPOSITIONS” (Yuyu Pharma, Inc., priority 2020, published 2023).
Values joined by “and” are separate entries in the source; they are usually repeats but may differ in a detail not shown here. Identical values can stand only once. Where a SMILES comes first, the peptide text is derived from it. [ ]: non-standard residue; d: D form. Hyp = O=C(O)[C@@H]1C[C@@H](O)CN1

Experiments:
[1] = system: IL-2; test: Example 8 main study Luminex, LPS hPBMCs: IL-2; format: cell-based, human; details: for IL-2 MFI, Mean / IL-2 Concentration, Mean / IL-2 Concentration, individual wells / IL-2 MFI, individual wells: no LPS; for IL-2 MFI, Mean: 0.5% DMSO Mean 30.7; for IL-2 Concentration, Mean: 0.5% DMSO Mean 61.8
Description: (§1) Human PBMCs were pretreated with YY-101, YDE-011, YDE-043 or reference compound; Xiidra® at various concentration (ranging from […] to 500 nM) for 2 h before stimulation. An equal volume of 0.5% DMSO was used as a vehicle control. Then, the cells were treated with LPS at 5 ug/ml, which was selected based on the pilot study. The supernatants from treated cells were harvested at 24 h and placed in a 96 well for Luminex cytokine & chemokine profiling using a Luminex 200 multiplex assay (Luminex; R&D system, USA).
(§2) The main study arm with triplicate wells per group in a 24-well plate: • 1. Blank • 2. PBMC: 0.5% DMSO • 3. PBMC+LPS (5 ug/ml) • 4. PBMC+YY-101 500 nM • 5. PBMC+YY-101 50 nM • 6. PBMC+YY-101 5 nM • 7. PBMC+YY-101 0.5 nM • 8. PBMC+LPS (5 ug/ml)+Xiidra® 500 nM • 9. PBMC+LPS (5 ug/ml)+Xiidra® 50 nM • 10. PBMC+LPS (5 ug/ml)+Xiidra® 5 nM • 11. PBMC+LPS (5 ug/ml)+Xiidra® 0.5 nM • 12. PBMC+LPS (5 ug/ml)+Xiidra® 0.05 nM • 13. PBMC+LPS (5 ug/ml)+Xiidra® 0.005 nM • 14. PBMC+LPS (5 ug/ml)+YY-101 500 nM • 15. PBMC+LPS (5 ug/ml)+YY-101 50 nM • 16. PBMC+LPS (5 ug/ml)+YY-101 5 nM • 17. PBMC+LPS (5 ug/ml)+YY-101 0.5 nM • 18. PBMC+LPS (5 ug/ml)+YY-101 0.05 nM • 19. PBMC+LPS (5 ug/ml)+YY-101 0.005 nM • 20. PBMC+LPS (5 ug/ml)+YDE-011 500 nM • 21. PBMC+LPS (5 ug/ml)+YDE-011 50 nM • 22. PBMC+LPS (5 ug/ml)+YDE-011 5 nM • 23. PBMC+LPS (5 ug/ml)+YDE-011 0.5 nM • 24. PBMC+LPS (5 ug/ml)+YDE-011 0.05 nM • 25. PBMC+LPS (5 ug/ml)+YDE-011 0.005 nM • 26. PBMC+LPS (5 ug/ml)+YDE-043 500 nM • 27. PBMC+LPS (5 ug/ml)+YDE-043 50 nM • 28. PBMC+LPS (5 ug/ml)+YDE-043 5 nM • 29. PBMC+LPS (5 ug/ml)+YDE-043 0.5 nM • 30. PBMC+LPS (5 ug/ml)+YDE-043 0.05 nM • 31. PBMC+LPS (5 ug/ml)+YDE-043 0.005 nM
(§3) Multiplex assay was used to measure 30 cytokines and chemokines. The 1:200 diluted cell supernatant and serial dilution of the standard were dispensed into a 96 well plate at 50 ul/well. Then, the pre-mixed cocktail of antibody-coated magnetic beads was dispensed at 50 ul/well and incubated at room temperature for 2 h in a horizontal orbital microplate shaker at 800±500 rpm. The beads were washed using a magnetic device to prevent loss. The biotin-antibody was dispensed in 50 ul of each well and incubated at room temperature for 1 h in a shaker at 800±500 rpm. After washing, streptavidin-PE was added at 50 ul/well and incubated at room temperature for 30 min in a shaker under the same conditions. Finally, after washing, wash buffer (100 ul/well) was added to the plate and incubated in a shaker for 2 min. The Luminex™ 200 setting were set according to the manufacturer's protocol. The data was calculated with a standard five-parameter logistic nonlinear regression analysis of the data (xPonent software 4.2, USA). Results were presented as concentration (ng/ml or pg/ml).

[2] = system: TNF-alpha; test: Example 8 main study Luminex, LPS hPBMCs: TNF-alpha; format: cell-based, human; details: for TNF-alpha Concentration: individual replicates; for TNF-alpha Concentration (pg/ml), Mean: mean of replicates
Description: as §1, §2, §3

[3] = at as low as 5 μM, LPS 5 ug/mL 24 hrs
[4] = PBMC + LPS(5 ug/ml) + test article 0.005 nM
[5] = PBMC + LPS(5 ug/ml) + test article 0.05 nM
[6] = PBMC + LPS(5 ug/ml) + test article 0.5 nM
[7] = PBMC + LPS(5 ug/ml) + test article 5 nM
[8] = PBMC + LPS(5 ug/ml) + test article 50 nM
[9] = PBMC + LPS(5 ug/ml) + test article 500 nM

CC(C)C[C@H](NC(=O)CNC(=O)[C@H](CC(=O)O)NC(=O)[C@H](CCC(N)=O)NC(=O)CNC(=O)[C@@H]1C[C@@H](O)CN1)C(=O)N[C@@H](C)C(=O)NCC(=O)N1CCC[C@H]1C(=O)N[C@@H](CCCCN)C(=O)O [YY-101] (H-[Hyp]GQDGLAGPK-OH; N-terminus and C-terminus assumed)
IL-2 MFI, Mean ([1]; PBMC + compound 5 nM): 32.0 | IL-2 Concentration, Mean ([1]; PBMC + compound 5 nM): 173.5 pg/mL | IL-2 Concentration, individual wells ([1]; PBMC + compound 0.05 uM): 659.4 pg/mL and 337.0 pg/mL | IL-2 MFI, individual wells ([1]; PBMC + compound 0.05 uM): 38.0 and 34.0 | IL-2 MFI, Mean ([1]; PBMC + compound 0.05 uM): 36.0 | IL-2 Concentration, Mean ([1]; PBMC + compound 0.05 uM): 498.2 pg/mL | IL-2 Concentration, individual wells ([1]; PBMC + compound 50 nM): 48.8 pg/mL and 173.5 pg/mL | IL-2 MFI, individual wells ([1]; PBMC + compound 50 nM): 30.5 and 32.0 | IL-2 MFI, Mean ([1]; PBMC + compound 50 nM): 31.3 | IL-2 Concentration, Mean ([1]; PBMC + compound 50 nM): 111.2 pg/mL | IL-2 Concentration, individual wells ([1]; PBMC + compound 500 nM): 132.3 pg/mL and 255.5 pg/mL | IL-2 MFI, individual wells ([1]; PBMC + compound 500 nM): 31.5 and 33.0 | IL-2 MFI, Mean ([1]; PBMC + compound 500 nM): 32.3 | IL-2 Concentration, Mean ([1]; PBMC + compound 500 nM): 193.9 pg/mL | LPS-induced IL-2 (in words) [1, 3]: significantly reduced | TNF-alpha Concentration [2, 4]: 2871.6 pg/mL and 2369.4 pg/mL and 2179.5 pg/mL | TNF-alpha Concentration (pg/ml), Mean [2, 4]: 2473.5 pg/mL | TNF-alpha Concentration [2, 5]: 1797.0 pg/mL and 2621.2 pg/mL and 2242.9 pg/mL | TNF-alpha Concentration (pg/ml), Mean [2, 5]: 2220.4 pg/mL | TNF-alpha Concentration [2, 6]: 2432.5 pg/mL and 2242.9 pg/mL and 2116.1 pg/mL | TNF-alpha Concentration (pg/ml), Mean [2, 6]: 2263.8 pg/mL | TNF-alpha Concentration [2, 7]: 1988.8 pg/mL and 1925.0 pg/mL and 2242.9 pg/mL | TNF-alpha Concentration (pg/ml), Mean [2, 7]: 2052.2 pg/mL | TNF-alpha Concentration [2, 8]: 1732.8 pg/mL and 1668.5 pg/mL and 1988.8 pg/mL | TNF-alpha Concentration (pg/ml), Mean [2, 8]: 1796.7 pg/mL | TNF-alpha Concentration [2, 9]: 2179.5 pg/mL and 1988.8 pg/mL and 1797.0 pg/mL | TNF-alpha Concentration (pg/ml), Mean [2, 9]: 1988.4 pg/mL | TNF-alpha Concentration ([2]; PBMC + test article 0.5 nM, no LPS, dilution 200): <7.70 pg/mL | TNF-alpha Concentration ([2]; PBMC + test article 5 nM, no LPS, dilution 200): <7.70 pg/mL | TNF-alpha Concentration ([2]; PBMC + test article 0.05 uM, no LPS, dilution 200): <7.70 pg/mL | TNF-alpha Concentration ([2]; PBMC + test article 50 nM, no LPS, dilution 200): <7.70 pg/mL | TNF-alpha Concentration ([2]; PBMC + test article 500 nM, no LPS, dilution 200): <7.70 pg/mL | LPS-induced TNF-α (in words) [2, 3]: significantly reduced
